According to the supplement of paper PMC8882468:

Tested on: HCI-025 (organoid from a breast cancer xenograft)
Test: CTG-3D luminescence at 96 h relative to day-0 seeding control (ratio to day 0); higher = more growth / less cytotoxicity; PDxO 3D drug screen (set 2), 96 h, CTG-3D normalised to day-0 seeding control.
Conditions: 0.1 µM; days in culture: 224

Point of comparison: `Nc1cc(C(F)(F)F)c(-c2cc(N3CCOCC3)nc(N3CCOCC3)n2)cn1` [buparlisib], “CTG-3D luminescence at 96 h” value 1.44. Against it:
- CCOc1ccn(-c2ccc(F)cc2)c(=O)c1C(=O)Nc1ccc(Oc2ccnc(N)c2Cl)c(F)c1 [ASLAN002] — lower, 1.32

Same assay, conditions: 1 µM; days in culture: 175

Point of comparison: `C[C@@H](Nc1cc(F)cc(F)c1)c1cc(C(=O)N(C)C)cc2c(=O)cc(N3CCOCC3)oc12` [AZD-8186], “CTG-3D luminescence at 96 h” value 2.4. Against it:
- CC(C)n1nc(-c2ccc3oc(N)nc3c2)c2c(N)ncnc21 [sapanisertib] — lower, 0.401
- CC(=O)c1c(C)c2cnc(Nc3ccc(N4CCNCC4)cn3)nc2n(C2CCCC2)c1=O [palbociclib] — lower, 2.37
- Cc1c(CN2CCN(C(=O)[C@H](C)O)CC2)sc2c(N3CCOCC3)nc(-c3cnc(N)nc3)nc12 [apitolisib] — lower, 0.73
- CS(=O)(=O)CCNCc1ccc(-c2ccc3ncnc(Nc4ccc(OCc5cccc(F)c5)c(Cl)c4)c3c2)o1 [lapatinib] — higher, 2.73
- CCOc1ccn(-c2ccc(F)cc2)c(=O)c1C(=O)Nc1ccc(Oc2ccnc(N)c2Cl)c(F)c1 [ASLAN002] — higher, 2.73
- Nc1cc(C(F)(F)F)c(-c2cc(N3CCOCC3)nc(N3CCOCC3)n2)cn1 [buparlisib] — lower, 1.75

Same assay, conditions: 1 µM; days in culture: 189

Point of comparison: `CS(=O)(=O)CCNCc1ccc(-c2ccc3ncnc(Nc4ccc(OCc5cccc(F)c5)c(Cl)c4)c3c2)o1` [lapatinib], “CTG-3D luminescence at 96 h” value 1.26. Against it:
- CC(C)n1nc(-c2ccc3oc(N)nc3c2)c2c(N)ncnc21 [sapanisertib] — lower, 0.34
- C[C@@H](Nc1cc(F)cc(F)c1)c1cc(C(=O)N(C)C)cc2c(=O)cc(N3CCOCC3)oc12 [AZD-8186] — higher, 1.81
- CC(=O)c1c(C)c2cnc(Nc3ccc(N4CCNCC4)cn3)nc2n(C2CCCC2)c1=O [palbociclib] — higher, 1.78
- Cc1c(CN2CCN(C(=O)[C@H](C)O)CC2)sc2c(N3CCOCC3)nc(-c3cnc(N)nc3)nc12 [apitolisib] — lower, 0.518
- CCOc1ccn(-c2ccc(F)cc2)c(=O)c1C(=O)Nc1ccc(Oc2ccnc(N)c2Cl)c(F)c1 [ASLAN002] — higher, 2.6
- Nc1cc(C(F)(F)F)c(-c2cc(N3CCOCC3)nc(N3CCOCC3)n2)cn1 [buparlisib] — higher, 1.36

Same assay, conditions: 1 µM; days in culture: 212

Point of comparison: `Cc1c(CN2CCN(C(=O)[C@H](C)O)CC2)sc2c(N3CCOCC3)nc(-c3cnc(N)nc3)nc12` [apitolisib], “CTG-3D luminescence at 96 h” value 0.534. Against it:
- CC(C)n1nc(-c2ccc3oc(N)nc3c2)c2c(N)ncnc21 [sapanisertib] — lower, 0.227
- C[C@@H](Nc1cc(F)cc(F)c1)c1cc(C(=O)N(C)C)cc2c(=O)cc(N3CCOCC3)oc12 [AZD-8186] — higher, 0.857
- CC(=O)c1c(C)c2cnc(Nc3ccc(N4CCNCC4)cn3)nc2n(C2CCCC2)c1=O [palbociclib] — higher, 0.809
- CS(=O)(=O)CCNCc1ccc(-c2ccc3ncnc(Nc4ccc(OCc5cccc(F)c5)c(Cl)c4)c3c2)o1 [lapatinib] — higher, 1.17
- CCOc1ccn(-c2ccc(F)cc2)c(=O)c1C(=O)Nc1ccc(Oc2ccnc(N)c2Cl)c(F)c1 [ASLAN002] — lower, 0.524
- Nc1cc(C(F)(F)F)c(-c2cc(N3CCOCC3)nc(N3CCOCC3)n2)cn1 [buparlisib] — higher, 1.13

Same assay, conditions: 1 µM; days in culture: 224

Point of comparison: `CS(=O)(=O)CCNCc1ccc(-c2ccc3ncnc(Nc4ccc(OCc5cccc(F)c5)c(Cl)c4)c3c2)o1` [lapatinib], “CTG-3D luminescence at 96 h” value 1.84. Against it:
- CC(C)n1nc(-c2ccc3oc(N)nc3c2)c2c(N)ncnc21 [sapanisertib] — lower, 0.423
- C[C@@H](Nc1cc(F)cc(F)c1)c1cc(C(=O)N(C)C)cc2c(=O)cc(N3CCOCC3)oc12 [AZD-8186] — higher, 2.68
- CC(=O)c1c(C)c2cnc(Nc3ccc(N4CCNCC4)cn3)nc2n(C2CCCC2)c1=O [palbociclib] — higher, 2
- Cc1c(CN2CCN(C(=O)[C@H](C)O)CC2)sc2c(N3CCOCC3)nc(-c3cnc(N)nc3)nc12 [apitolisib] — lower, 0.679
- CCOc1ccn(-c2ccc(F)cc2)c(=O)c1C(=O)Nc1ccc(Oc2ccnc(N)c2Cl)c(F)c1 [ASLAN002] — higher, 1.95
- Nc1cc(C(F)(F)F)c(-c2cc(N3CCOCC3)nc(N3CCOCC3)n2)cn1 [buparlisib] — lower, 1.75

Same assay, conditions: 10 µM; days in culture: 175

Point of comparison: `CC(C)n1nc(-c2ccc3oc(N)nc3c2)c2c(N)ncnc21` [sapanisertib], “CTG-3D luminescence at 96 h” value 0.466. Against it:
- C[C@@H](Nc1cc(F)cc(F)c1)c1cc(C(=O)N(C)C)cc2c(=O)cc(N3CCOCC3)oc12 [AZD-8186] — higher, 3.48
- CC(=O)c1c(C)c2cnc(Nc3ccc(N4CCNCC4)cn3)nc2n(C2CCCC2)c1=O [palbociclib] — higher, 2.28
- Cc1c(CN2CCN(C(=O)[C@H](C)O)CC2)sc2c(N3CCOCC3)nc(-c3cnc(N)nc3)nc12 [apitolisib] — higher, 0.467
- CS(=O)(=O)CCNCc1ccc(-c2ccc3ncnc(Nc4ccc(OCc5cccc(F)c5)c(Cl)c4)c3c2)o1 [lapatinib] — higher, 1.66
- CCOc1ccn(-c2ccc(F)cc2)c(=O)c1C(=O)Nc1ccc(Oc2ccnc(N)c2Cl)c(F)c1 [ASLAN002] — higher, 2.56
- Nc1cc(C(F)(F)F)c(-c2cc(N3CCOCC3)nc(N3CCOCC3)n2)cn1 [buparlisib] — lower, 0.433

Same assay, conditions: 10 µM; days in culture: 189

Point of comparison: `CC(=O)c1c(C)c2cnc(Nc3ccc(N4CCNCC4)cn3)nc2n(C2CCCC2)c1=O` [palbociclib], “CTG-3D luminescence at 96 h” value 1.42. Against it:
- CC(C)n1nc(-c2ccc3oc(N)nc3c2)c2c(N)ncnc21 [sapanisertib] — lower, 0.244
- C[C@@H](Nc1cc(F)cc(F)c1)c1cc(C(=O)N(C)C)cc2c(=O)cc(N3CCOCC3)oc12 [AZD-8186] — higher, 1.88
- Cc1c(CN2CCN(C(=O)[C@H](C)O)CC2)sc2c(N3CCOCC3)nc(-c3cnc(N)nc3)nc12 [apitolisib] — lower, 0.179
- CS(=O)(=O)CCNCc1ccc(-c2ccc3ncnc(Nc4ccc(OCc5cccc(F)c5)c(Cl)c4)c3c2)o1 [lapatinib] — lower, 0.872
- CCOc1ccn(-c2ccc(F)cc2)c(=O)c1C(=O)Nc1ccc(Oc2ccnc(N)c2Cl)c(F)c1 [ASLAN002] — higher, 1.72
- Nc1cc(C(F)(F)F)c(-c2cc(N3CCOCC3)nc(N3CCOCC3)n2)cn1 [buparlisib] — lower, 0.246

Same assay, conditions: 10 µM; days in culture: 212

Point of comparison: `CC(C)n1nc(-c2ccc3oc(N)nc3c2)c2c(N)ncnc21` [sapanisertib], “CTG-3D luminescence at 96 h” value 0.183. Against it:
- C[C@@H](Nc1cc(F)cc(F)c1)c1cc(C(=O)N(C)C)cc2c(=O)cc(N3CCOCC3)oc12 [AZD-8186] — higher, 1.27
- CC(=O)c1c(C)c2cnc(Nc3ccc(N4CCNCC4)cn3)nc2n(C2CCCC2)c1=O [palbociclib] — higher, 2.39
- Cc1c(CN2CCN(C(=O)[C@H](C)O)CC2)sc2c(N3CCOCC3)nc(-c3cnc(N)nc3)nc12 [apitolisib] — higher, 0.218
- CS(=O)(=O)CCNCc1ccc(-c2ccc3ncnc(Nc4ccc(OCc5cccc(F)c5)c(Cl)c4)c3c2)o1 [lapatinib] — higher, 0.527
- CCOc1ccn(-c2ccc(F)cc2)c(=O)c1C(=O)Nc1ccc(Oc2ccnc(N)c2Cl)c(F)c1 [ASLAN002] — higher, 1.75
- Nc1cc(C(F)(F)F)c(-c2cc(N3CCOCC3)nc(N3CCOCC3)n2)cn1 [buparlisib] — higher, 0.331

Same assay, conditions: 10 µM; days in culture: 224

Point of comparison: `Cc1c(CN2CCN(C(=O)[C@H](C)O)CC2)sc2c(N3CCOCC3)nc(-c3cnc(N)nc3)nc12` [apitolisib], “CTG-3D luminescence at 96 h” value 0.351. Against it:
- CC(C)n1nc(-c2ccc3oc(N)nc3c2)c2c(N)ncnc21 [sapanisertib] — lower, 0.26
- C[C@@H](Nc1cc(F)cc(F)c1)c1cc(C(=O)N(C)C)cc2c(=O)cc(N3CCOCC3)oc12 [AZD-8186] — higher, 1.8
- CC(=O)c1c(C)c2cnc(Nc3ccc(N4CCNCC4)cn3)nc2n(C2CCCC2)c1=O [palbociclib] — higher, 2.17
